# The source made the active and inactive calls. No cut-off for these calls is given here.
# How the values were obtained:
# [1] = tested on: von Hippel-Lindau disease tumor suppressor/GTPase KRas (Homo sapiens), P01116+P40337 [G12D]; experiment: PROTAC activity at VHL/KRAS G12D mutant in human ASPC1 cells assessed as induction of protein degradation at 1 uM incubated for 24 hrs by Western blot analysis relative to control; assay type: cell-based
# [2] = Tmax in BALB/c mouse at 10 mg/kg, sc by LC-MS/MS analysis; assay type: ADME, organism-based; settings: in vivo
# Panc 04.03 = experiment: Antiproliferative activity against human Panc 04.03 cells harboring KRAS G12D mutant assessed as inhibition of cell viability incubated for 5 days by Cell Titer Glo assay; assay type: functional, cell-based; settings: Panc 04.03, 120 h
# [3] = tested on: von Hippel-Lindau disease tumor suppressor/GTPase KRas (Homo sapiens), P01116+P40337 [G12D]; experiment: PROTAC activity at VHL/KRAS G12D mutant in human ASPC1 cells assessed as induction of protein degradation at 1 uM pretreated with 4-(4-((1R,5S)-3,8-diazabicyclo[3.2.1]octan-3-yl)-8-fluoro-2-(((S)-1-methylpyrrolidin-2-yl)methoxy)pyrido[4,3-d]pyrimidin-7-yl)-5-ethyl-6-fluoronaphthalen-2-ol followed by compound treatment for 6 hrs by Western blot analysis; assay type: cell-based
# [4] = tested on: von Hippel-Lindau disease tumor suppressor/GTPase KRas (Homo sapiens), P01116+P40337 [G12D]; experiment: In vivo PROTAC activity at VHL/KRAS G12D mutant in human ASPC1 cells xenografted in BALB/c nude mouse assessed as decrease in pERK level at 50 mg/kg, sc measured for 24 hrs by Western blot analysis; assay type: functional, organism-based
# [5] = tested on: von Hippel-Lindau disease tumor suppressor/GTPase KRas (Homo sapiens), P01116+P40337 [G12D]; experiment: PROTAC activity at VHL/KRAS G12D mutant in human ASPC1 cells assessed as induction of protein degradation incubated for 24 hrs by Western blot analysis relative to control; assay type: cell-based
# [6] = tested on: von Hippel-Lindau disease tumor suppressor/GTPase KRas (Homo sapiens), P01116+P40337 [G13D]; experiment: PROTAC activity at VHL/KRAS G13D mutant in human HCT-116 cells assessed as induction of protein degradation at 0.1 uM incubated for 24 hrs by Western blot analysis; assay type: cell-based
# ASPC1 [7] = experiment: Downregulation of DUSP4 mRNA level in human ASPC1 cells at 0.1 to 1 uM incubated for 6 hrs by RT-qPCR analysis; assay type: functional, cell-based; settings: dose 0.1-1 µM
# [8] = tested on: von Hippel-Lindau disease tumor suppressor/GTPase KRas (Homo sapiens), P01116+P40337 [G12D]; experiment: PROTAC activity at VHL/KRAS G12D mutant in human SNU1 cells assessed as decrease in pERK level at 1 uM incubated upto 24 hrs by Western blot analysis; assay type: cell-based
# [9] = tested on: von Hippel-Lindau disease tumor suppressor/GTPase KRas (Homo sapiens), P01116+P40337 [G12D]; experiment: PROTAC activity at VHL/KRAS G12D mutant in human ASPC1 cells assessed as induction of protein degradation at 1 uM pretreated with MG-132 followed by compound treatment for 6 hrs by Western blot analysis; assay type: cell-based
# [10] = target: T1, von Hippel-Lindau disease tumor suppressor/GTPase KRas (Homo sapiens, UniProt P01116+P40337, G12D); experiment: PROTAC activity at VHL/KRAS G12D mutant in human AGS cells assessed as induction of protein degradation incubated for 24 hrs by Western blot analysis; assay type: cell-based
# T1 sequence (P01116 whole entry G12D, stated change not applied): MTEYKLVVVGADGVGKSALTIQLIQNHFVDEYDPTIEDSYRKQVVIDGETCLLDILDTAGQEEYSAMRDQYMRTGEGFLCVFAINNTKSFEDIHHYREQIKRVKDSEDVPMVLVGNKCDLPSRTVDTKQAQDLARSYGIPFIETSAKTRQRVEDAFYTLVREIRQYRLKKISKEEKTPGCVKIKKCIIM
# T1 sequence (P40337 whole entry, stated change not applied): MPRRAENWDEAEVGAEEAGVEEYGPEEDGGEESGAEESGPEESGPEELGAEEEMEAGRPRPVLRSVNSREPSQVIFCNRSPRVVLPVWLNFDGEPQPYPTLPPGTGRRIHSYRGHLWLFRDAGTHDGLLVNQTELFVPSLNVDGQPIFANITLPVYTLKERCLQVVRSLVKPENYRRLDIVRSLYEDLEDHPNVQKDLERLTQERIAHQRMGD
# [11] = tested on: von Hippel-Lindau disease tumor suppressor/GTPase KRas (Homo sapiens), P01116+P40337 [G12D]; experiment: PROTAC activity at VHL/KRAS G12D mutant in human ASPC1 cells assessed as induction of protein degradation at 0.1 uM incubated for 24 hrs by Western blot analysis relative to control; assay type: cell-based
# [12] = Competitive binding affinity to His-tagged VHL/Elongin C/Elongin B (unknown origin) by FP assay; design: species or system Homo sapiens
# [13] = tested on: von Hippel-Lindau disease tumor suppressor/GTPase KRas (Homo sapiens), P01116+P40337 [G12D]; experiment: PROTAC activity at VHL/KRAS G12D mutant in human ASPC1 cells assessed as induction of protein degradation at 1 uM pretreated with chloroquine followed by compound treatment for 6 hrs by Western blot analysis; assay type: cell-based
# NCI-H1975 = experiment: Antiproliferative activity against human NCI-H1975 cells harboring wild-type KRAS assessed as inhibition of cell viability incubated for 5 days by Cell Titer Glo assay; assay type: functional, cell-based; settings: NCI-H1975, 120 h
# ASPC1 [14] = experiment: Downregulation of KRT5 level in human ASPC1 cells at 0.1 uM incubated for 6 hrs by DIA-based proteomic analysis; assay type: functional, cell-based
# HPAF-II = experiment: Antiproliferative activity against human HPAF-II cells harboring KRAS G12D mutant assessed as inhibition of cell viability incubated for 5 days by Cell Titer Glo assay; assay type: functional, cell-based; settings: 120 h
# [15] = tested on: von Hippel-Lindau disease tumor suppressor/GTPase KRas (Homo sapiens), P01116+P40337 [G12D]; experiment: PROTAC activity at VHL/KRAS G12D mutant in human ASPC1 cells assessed as decrease in pERK level at 1 uM incubated upto 24 hrs by Western blot analysis; assay type: cell-based
# [16] = Drug uptake in human ASPC1 cells at 10 uM incubated for 1 hr by MS analysis; assay type: ADME, cell-based; settings: aspc1, 1 h
# [17] = Half life in BALB/c mouse at 10 mg/kg, sc by LC-MS/MS analysis; assay type: ADME, organism-based; settings: in vivo
# [18] = tested on: von Hippel-Lindau disease tumor suppressor/GTPase KRas (Homo sapiens), P01116+P40337 [G12D]; experiment: In vivo PROTAC activity at VHL/KRAS G12D mutant in human ASPC1 cells xenografted in BALB/c nude mouse assessed as induction of protein degradation at 50 mg/kg, sc measured for 3 to 72 hrs by Western blot analysis; assay type: functional, organism-based; settings: time 3-72 hrs
# ASPC1 [19] = experiment: Downregulation of DUSP4 level in human ASPC1 cells at 0.1 uM incubated for 6 hrs by DIA-based proteomic analysis; assay type: functional, cell-based
# [20] = Cmax in BALB/c mouse at 10 mg/kg, sc by LC-MS/MS analysis; assay type: ADME, organism-based; settings: in vivo
# AGS = experiment: Antiproliferative activity against human AGS cells harboring KRAS G12D mutant assessed as inhibition of cell viability incubated for 5 days by Cell Titer Glo assay; assay type: functional, cell-based; settings: 120 h
# ASPC1 [21] = experiment: Antiproliferative activity against human ASPC1 cells assessed as inhibition of cell viability incubated for 6 hrs followed by compound washout measured after 114 hrs by Cell Titer Glo assay; assay type: functional, cell-based
# ASPC1 [22] = experiment: Antitumor activity in human ASPC1 cells xenografted in BALB/c nude mouse assessed as tumor growth inhibition at 30 mg/kg, ip bid for 22 days relative to control; assay type: functional; settings: ASPC1, 528 h, time 22 day, read-out: TGI
# [23] = tested on: von Hippel-Lindau disease tumor suppressor/GTPase KRas (Homo sapiens), P01116+P40337 [G12C]; experiment: PROTAC activity at VHL/KRAS G12C mutant in human NCI-H358 cells assessed as induction of protein degradation at 1 uM incubated for 24 hrs by Western blot analysis relative to control; assay type: cell-based
# [24] = tested on: von Hippel-Lindau disease tumor suppressor/GTPase KRas (Homo sapiens), P01116+P40337 [G12R]; experiment: PROTAC activity at VHL/KRAS G12R mutant in human CAL-62 cells assessed as induction of protein degradation at 0.1 uM incubated for 24 hrs by Western blot analysis; assay type: cell-based
# [25] = Toxicity in BALB/c nude mouse xenografted with human ASPC1 cells assessed as drug tolerance at 50 mg/kg, sc for 22 days; assay type: organism-based; settings: in vivo, 528 h, time 22 day
# [26] = tested on: von Hippel-Lindau disease tumor suppressor/GTPase KRas (Homo sapiens), P01116+P40337 [G12D]; experiment: In vivo PROTAC activity at VHL/KRAS G12D mutant in human ASPC1 cells xenografted in BALB/c nude mouse assessed as induction of protein degradation at 50 mg/kg, sc measured for >24 hrs; assay type: functional, organism-based
# ASPC1 [27] = experiment: Antitumor activity in human ASPC1 cells xenografted in BALB/c nude mouse assessed as tumor growth inhibition at 50 mg/kg, sc administered once daily for 22 days relative to control; assay type: functional; settings: ASPC1, 528 h, time 22 day, read-out: TGI
# [28] = target: T1, von Hippel-Lindau disease tumor suppressor/GTPase KRas; experiment: PROTAC activity at VHL/KRAS G12D mutant in human ASPC1 cells assessed as inhibition of pERK level incubated for 24 hrs by Western blot analysis; assay type: cell-based
# [29] = Competitive binding affinity to His-tagged VHL/Elongin C/Elongin B/KRAS G12D mutant (unknown origin) by FP assay; design: species or system Homo sapiens
# Chain of von Hippel-Lindau disease tumor suppressor/GTPase KRas (Homo sapiens), P01116+P40337 [G12D] (P01116 whole entry G12D): as the sequence (P01116 whole entry G12D, stated change not applied) above
# Chain of von Hippel-Lindau disease tumor suppressor/GTPase KRas (Homo sapiens), P01116+P40337 [G12D] (P40337 whole entry partner): as the sequence (P40337 whole entry, stated change not applied) above
structure (smiles),measurement,setting,value
CCc1c(F)ccc2cc(O)cc(-c3ncc4c(N5C[C@H]6CC[C@@H](C5)N6)nc(OC[C@@H]5CCCN5CCCCOCC(=O)N[C@H](C(=O)N5C[C@H](O)C[C@H]5C(=O)N[C@@H](C)c5ccc(-c6scnc6C)cc5)C(C)(C)C)nc4c3F)c12,Activity,[1],95.1%
same,Tmax,[2],0.25 h
same,IC50,Panc 04.03,51.5 nM
same,Activity,[3],inactive
same,Activity,[4],Active
same,Emax,[5],98.9%
same,Activity,[6],inactive
same,Activity,ASPC1 [7],Active
same,Activity,[8],Active
same,Activity,[9],inactive
same,DC50,[10],7.49 nM
same,Activity,[11],75.8%
same,IC50,[12],299 nM
same,Activity,[13],Active
same,IC50,NCI-H1975,> 10000 nM
same,Activity,ASPC1 [14],Active
same,IC50,HPAF-II,45.2 nM
same,Activity,[15],Active
same,Drug uptake,[16],Active
same,half-life,[17],8.7 h
same,Activity,[18],Active
same,Activity,ASPC1 [19],Active
same,Cmax,[20],2080 ng/mL
same,IC50,AGS,31.4 nM
same,IC50,ASPC1 [21],231 nM
same,inhibition in vivo at 30 mg/kg,ASPC1 [22],89.1%
same,Activity,[23],37.4%
same,Activity,[24],inactive
same,Activity,[25],Non-Toxic
same,Activity,[26],Active
same,inhibition in vivo at 50 mg/kg,ASPC1 [27],68.6%
same,IC50,[28],52.9 nM
same,IC50,[29],18.8 nM
